Data on five compounds can be found in patent US20230365590A1, “BIPHENYL COMPOUND AS IMMUNOMODULATOR, PREPARATION METHOD THEREFOR AND APPLICATION THEREOF” (SHENZHEN CHIPSCREEN BIOSCIENCES CO., LTD., priority 2020, published 2023).

As usually defined, the AUC(0-t) is the area under the concentration-time curve up to a stated or last time point. One may read the MRT as the average time that molecules of a dose stay in the body. The term half-life denotes how long it takes for the measured level to halve.

The nature of data set [1]: Repeated-dosing pharmacokinetics test. The class given is in vivo, B-hPD-1/hPD-L1 humanized female mice. Conditions: female, B-hPD-1/hPD-L1 (humanized), mouse, po; humanized mice, 50 mg/kg by gavage once a day for 12 days, plasma on day 12. The protocol:
24 6-week old B-hPD-1/hPD-L1 humanized female mice (purchased from Biocytogen (Jiangsu) Gene Biotechnology Co., Ltd.) were taken and the test compound was dissolved in a solvent containing 5% DMSO, 60% PEG400 and 35% purified water. The compound I-6 and three control molecules, Example 17, Compound 14 (INCB086550) and the aforementioned Example 180 were dosed. The compound was administered by gavage once a day in a dose of 50 mg/kg for 12 consecutive days, and blood was alternately collected through fundus vein plexus on day 12 of administration. The time points for blood collection were 15 min, 30 min, 1 h, 2 h, 4 h, 8 h, 24 h, 32 h and 48 h. About 0.1 mL of blood was collected and centrifuged in a centrifuge tube (heparin sodium for anticoagulation) at 5000 rpm for 5 min to separate plasma, and then frozen at −20° C. for testing. The concentration of the compound in the plasma was determined by liquid chromatography-mass spectrometry (LC-MS/MS). The pharmacokinetic parameters were calculated using Phoenix WinNonlin 7.0 based on the average blood concentration data at different time points.

Data set [2] is described as follows: Single-dosing pharmacokinetics test. Conditions: female, B-hPD-1/hPD-L1 (humanized), mouse, po; humanized mice, single dose of 100 mg/kg by gavage, plasma. The format is in vivo, B-hPD-1/hPD-L1 female mice. The protocol: 24 6-week old B-hPD-1/hPD-L1 female mice (purchased from Biocytogen (Jiangsu) Gene Biotechnology Co., Ltd.) were taken and the test compound was dissolved in a solvent containing 5% DMSO, 60% PEG400 and 35% purified water. The compound I-6 and three control molecules, Example 17, Compound 14 (INCB086550) and Example 180 were dosed. The compound was administered by gavage in a single dose of 100 mg/kg and blood was collected through fundus vein plexus after administration. The time points for blood collection were 15 min, 30 min, 1 h, 2 h, 4 h, 8 h, 24 h, 32 h and 48 h. About 0.1 mL of blood was collected and centrifuged in a centrifuge tube (heparin sodium anticoagulation) at 5000 rpm for 5 min to separate plasma, and then frozen at −20° C. for testing. After the plasma sample was treated, the concentration of the compound in the plasma was determined by liquid chromatography-mass spectrometry (LC-MS/MS). The pharmacokinetic parameters were calculated using Phoenix WinNonlin 7.0 based on the average blood concentration data at different time points.

The conditions of data set [3]: clinical studies; cited from earlier work.

In data set [1], `Cc1c(Nc2nccc3cc(CN4CC[C@@H](O)C4)cnc23)cccc1-c1cccc(-c2nc3cc(CN4CC[C@@H](C(=O)O)C4)cc(C#N)c3o2)c1C` [Compound 14 (INCB086550)] gave an AUC(0-t) of 10600 ng·h/mL, a mean residence time (MRT) of 5 h and a half-life of 3.7 h. In data set [2], this compound showed an AUC(0-t) of 19600 ng·h/mL, an MRT of 5.9 h and a half-life of 3.9 h.
`Cn1c(C(=O)Nc2cccc(-c3cccc(NC(=O)c4nc5c(n4C)CCN(CCC46CCC(C(=O)O)(CC4)C6)C5)c3Cl)c2Cl)nc2c1CCN(CCC13CCC(C(=O)O)(CC1)C3)C2` [Example 17]: in data set [1], the AUC(0-t) amounted to 58800 ng·h/mL, the MRT amounted to 4.6 h and the half-life was 3.9 h. In data set [2], this compound showed an AUC(0-t) of 118000 ng·h/mL, an MRT of 4.2 h and a half-life of 3.8 h.
With atezolizumab: PD-1/PD-L1 antibody drug, in data set [3], the “half time T1/2” value was 648 h.
For nivolumab: PD-1/PD-L1 antibody drug, the “half time T1/2” value in data set [3] is 605 h.
As for pembrolizumab: PD-1/PD-L1 antibody drug, in data set [3], the “half time T1/2” value was 600 h.
